According to patent US7838553B2, “Benzopyran derivatives as potassium channel openers” (Janssen Pharmaceutica NV, priority 2005, dated 2010):

biological target: T1, KATP channels (Homo sapiens, UniProt O60706+Q14654); test: Potassium Channel Assay (FLIPR membrane potential); assay type: cell-based; settings: TE671 human medulloblastoma cells, Membrane Potential Assay Dye, room temperature, hyperpolarization from KATP channel opening
T1 construct: TE671 human medulloblastoma cells were obtained from ATCC; host or cells: TE671 human medulloblastoma cells
T1 sequence (O60706 1-1549 isoform O60706-2): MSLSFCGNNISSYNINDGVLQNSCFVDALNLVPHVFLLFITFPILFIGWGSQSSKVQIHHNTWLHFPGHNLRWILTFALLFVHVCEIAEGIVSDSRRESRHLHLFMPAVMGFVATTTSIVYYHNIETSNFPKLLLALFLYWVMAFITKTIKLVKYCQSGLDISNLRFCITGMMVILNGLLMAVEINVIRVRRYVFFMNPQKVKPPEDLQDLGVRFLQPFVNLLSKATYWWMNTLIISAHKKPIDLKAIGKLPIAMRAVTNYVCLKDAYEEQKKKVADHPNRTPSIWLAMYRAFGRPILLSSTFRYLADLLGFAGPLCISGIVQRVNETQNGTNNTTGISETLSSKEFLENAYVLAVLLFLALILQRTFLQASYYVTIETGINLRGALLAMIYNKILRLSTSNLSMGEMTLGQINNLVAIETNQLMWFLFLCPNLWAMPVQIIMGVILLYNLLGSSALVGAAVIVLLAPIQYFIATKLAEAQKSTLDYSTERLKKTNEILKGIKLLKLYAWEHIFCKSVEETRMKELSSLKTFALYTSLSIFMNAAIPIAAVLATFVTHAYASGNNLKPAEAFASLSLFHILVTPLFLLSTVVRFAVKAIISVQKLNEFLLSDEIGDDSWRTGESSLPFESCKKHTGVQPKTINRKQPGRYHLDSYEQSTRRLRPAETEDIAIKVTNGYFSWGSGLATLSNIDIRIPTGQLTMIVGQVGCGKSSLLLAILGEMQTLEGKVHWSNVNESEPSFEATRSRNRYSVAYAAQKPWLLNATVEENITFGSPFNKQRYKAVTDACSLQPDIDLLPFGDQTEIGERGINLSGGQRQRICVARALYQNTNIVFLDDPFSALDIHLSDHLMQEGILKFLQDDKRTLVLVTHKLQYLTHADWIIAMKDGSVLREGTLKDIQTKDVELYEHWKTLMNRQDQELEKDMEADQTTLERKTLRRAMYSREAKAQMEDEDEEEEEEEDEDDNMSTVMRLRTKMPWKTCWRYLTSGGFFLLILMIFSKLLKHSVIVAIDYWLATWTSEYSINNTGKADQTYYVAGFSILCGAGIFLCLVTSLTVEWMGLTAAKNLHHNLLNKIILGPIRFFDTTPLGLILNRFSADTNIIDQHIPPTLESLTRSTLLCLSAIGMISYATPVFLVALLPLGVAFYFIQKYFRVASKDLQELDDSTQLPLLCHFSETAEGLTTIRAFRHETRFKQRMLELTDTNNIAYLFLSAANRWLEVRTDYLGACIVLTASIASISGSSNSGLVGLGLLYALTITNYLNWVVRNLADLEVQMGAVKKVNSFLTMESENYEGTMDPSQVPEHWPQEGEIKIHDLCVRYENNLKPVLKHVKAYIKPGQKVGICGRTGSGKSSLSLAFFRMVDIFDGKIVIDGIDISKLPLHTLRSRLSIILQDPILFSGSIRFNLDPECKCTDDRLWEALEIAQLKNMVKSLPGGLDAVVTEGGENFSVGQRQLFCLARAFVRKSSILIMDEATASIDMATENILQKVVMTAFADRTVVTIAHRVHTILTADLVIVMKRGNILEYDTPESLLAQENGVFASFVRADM
T1 sequence (Q14654 whole entry): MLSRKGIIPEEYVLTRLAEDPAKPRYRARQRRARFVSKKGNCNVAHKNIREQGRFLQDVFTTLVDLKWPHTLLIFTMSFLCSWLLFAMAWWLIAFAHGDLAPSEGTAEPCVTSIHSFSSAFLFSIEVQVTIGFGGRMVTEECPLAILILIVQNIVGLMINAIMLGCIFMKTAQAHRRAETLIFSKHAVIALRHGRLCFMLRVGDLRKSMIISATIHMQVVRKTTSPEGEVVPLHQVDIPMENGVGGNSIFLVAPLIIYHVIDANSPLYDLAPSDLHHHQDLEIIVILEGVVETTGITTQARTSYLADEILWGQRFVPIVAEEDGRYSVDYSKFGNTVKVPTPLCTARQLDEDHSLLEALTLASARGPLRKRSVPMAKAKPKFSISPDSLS
Protocol: TE671 human medulloblastoma cells were obtained from ATCC and grown in Dulbecco's modified Eagle's medium (DMEM) supplemented with 10% fetal bovine serum, 100 U/ml penicillin and […].
The day before testing, the cells were plated in black 96-well plates at 50 K/well. On the day of testing, the growth media was removed, then 100 μl of FLIPR buffer (20 mM HEPES, 120 mM NaCl, 2 mM KCl, 2 mM CaCl2, 1 mM MgCl2, 5 mM Glucose) and 100 μl of Membrane Potential Assay Dye (Molecular Devices) dissolved in FLIPR buffer were added to each well. The cells were incubated at room temperature for 15 to 30 min.
The effect of test compounds on KATP channels were evaluated on a fluorometric imaging plate reader (FLIPR, Molecular Devices) at room temperature. After a baseline period, 50 μl of 5× stock solution of test compound prepared in FLIPR buffer was added and fluorescent change was monitored for 3 minutes. After this reading, glyburide, a KATP channel blocker, was added to a final concentration of 5 μM to check the specificity of the test compound as a KATP channel openers. Hyperpolarization resulting from KATP channel opening was observed as a decrease in fluorescent intensity.
Representative compounds of the present invention were tested according to the procedure described above, with results as listed in Table 7, below.

EC50	Compound
> 30 µM	CC1(C)Oc2ccncc2[C@@H](n2c(=O)ccn2-c2ccc(Cl)cc2)[C@@H]1O (racemic) [Compound 110, 1-(4-Chloro-phenyl)-2-(3-hydroxy-2,2-dimethyl-3,4-dihydro-2H-pyrano[32-c]pyridin-4-yl)-1,2-dihydro-pyrazol-3-one]
0.84 µM	CC1(C)Oc2ccc(C#N)cc2[C@@H](Sc2ncc[nH]2)[C@@H]1O [Compound 25, (3S,4R)-3-Hydroxy-4-(2H-imidazol-2-ylsulfanyl)-2,2-dimethyl-chroman-6-carbonitrile]
> 30 µM	CC1(C)Oc2ccc(S(=O)(=O)c3ccccc3)cc2[C@@H](Oc2noc3ccc(Cl)cc23)[C@@H]1O [Compound 75, (3S,4R)-6-Benzenesulfonyl-4R-(5-chloro-benzo[d]isoxazol-3-yloxy)-2,2-dimethyl-chroman-3S-ol]
